From US20240238425A1, “HSD17B13 Inhibitors and/or Degraders” (Pfizer Inc., priority 2022, published 2024)
Structures can show the parent of a compound that is named as a salt.

Tested on: HiBiT-HSD17β13 fusion protein (N-terminal HiBiT-tagged HSD17β13 isoform D) in Huh7 HiBiT-HSD17β13 OE cells
Experiment: Whole-cell Huh7-HSD17B13 HiBiT assay (degrader potency and maximal efficacy, luminescence readout)
Assay type: cell-based, human
Conditions: 24 hour incubation, geometric mean, * = geometric mean for all forms tested (parent and salt forms); for DC50: read-out: Huh7_HIBIT-HSD17β13_DC50 GMean DC50; for Huh7_HIBIT-HSD17β13_DC50 GMean Asymptote Maximum: max. concentration 1 μM
Outline: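 Luminescence from lytic HiBiT detection tracked residual HiBiT-HSD17β13 (isoform D, N-terminal tag) in a stable Huh7 overexpressing clone after 24 h compound treatment at 37° C, 11 concentrations up to 1 μM final. Percent effect used DMSO (zero) and parental Huh7 (high) wells; four-parameter fit gave 50% degradation; viability checked by CellTiter-Glo.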

| Compound | DC50 | Huh7_HIBIT-HSD17β13_DC50 GMean Asymptote Maximum |
| --- | --- | --- |
| Cn1c(=O)n(C2CCC(=O)NC2=O)c2ccc(CCCN3CC[C@@H]4CN(c5ccc6cn([C@H]7CC[C@H](CNC(=O)c8cc(F)c(O)c(F)c8F)CC7)nc6c5)C[C@H]4C3)cc21 (mixture of isomers) [Example 101, N-{[(1r,4r)-4-{6-[(3aR,7aS)-5-(3-{1-[(3RS)-2,6-dioxopiperidin-3-yl]-3-methyl-2-oxo-2,3-dihydro-1H-benzimidazol-5-yl}propyl)octahydro-2H-pyrrolo[3,4-c]pyridin-2-yl]-2H-indazol-2-yl}cyclohexyl]methyl}-2,3,5-trifluoro-4-hydroxybenzamide, formate salt] | 0.88 nM | 74% |
| Cn1c(=O)n(C2CCC(=O)NC2=O)c2ccc(CCCN3C[C@@H]4CCN(c5ccc6cn([C@H]7CC[C@H](CNC(=O)c8cc(F)c(O)c(F)c8F)CC7)nc6c5)C[C@@H]4C3)cc21 (mixture of isomers) [Example 102, N-{[(1r,4r)-4-{6-[(3aS,7aR)-2-(3-{1-[(3RS)-2,6-dioxopiperidin-3-yl]-3-methyl-2-oxo-2,3-dihydro-1H-benzimidazol-5-yl}propyl)octahydro-5H-pyrrolo[3,4-c]pyridin-5-yl]-2H-indazol-2-yl}cyclohexyl]methyl}-2,3,5-trifluoro-4-hydroxybenzamide, formate salt] | 1.5 nM | 74% |
| Cn1c(=O)n(C2CCC(=O)NC2=O)c2ccc(CCCN3CCc4nc(-c5ccc6cn([C@H]7CC[C@H](CNC(=O)c8cc(F)c(O)c(F)c8F)CC7)nc6c5)sc4C3)cc21 (mixture of isomers) [Example 115, N-{[(1r,4r)-4-{6-[5-(3-{1-[(3RS)-2,6-dioxopiperidin-3-yl]-3-methyl-2-oxo-2,3-dihydro-1H-benzimidazol-5-yl}propyl)-4,5,6,7-tetrahydro[1,3]thiazolo[5,4-c]pyridin-2-yl]-2H-indazol-2-yl}cyclohexyl]methyl}-2,3,5-trifluoro-4-hydroxybenzamide, trifluoroacetate salt] | 0.26 nM | 79% |
| Cn1c(=O)n(C2CCC(=O)NC2=O)c2ccc(CCN3CCOC4(C3)CN(c3ccc5cn([C@H]6CC[C@H](CNC(=O)c7cc(F)c(O)c(F)c7F)CC6)nc5c3)C4)cc21 (mixture of isomers) [Example 117, N-{[(1r,4r)-4-{6-[8-(2-{1-[(3RS)-2,6-dioxopiperidin-3-yl]-3-methyl-2-oxo-2,3-dihydro-1H-benzimidazol-5-yl}ethyl)-5-oxa-2,8-diazaspiro[3.5]nonan-2-yl]-2H-indazol-2-yl}cyclohexyl]methyl}-2,3,5-trifluoro-4-hydroxybenzamide, trifluoroacetate salt] | 0.95 nM | 79% |
| Cn1c(=O)n(C2CCC(=O)NC2=O)c2ccc(CCCN3C[C@H]4CN(c5ccc6cn([C@H]7CC[C@H](CNC(=O)c8cc(F)c(O)c(F)c8F)CC7)nc6c5)C[C@@H]4C3)cc21 (mixture of isomers) [Example 118, N-{[(1r,4r)-4-{6-[(3aS,6aS)-5-(3-{1-[(3RS)-2,6-dioxopiperidin-3-yl]-3-methyl-2-oxo-2,3-dihydro-1H-benzimidazol-5-yl}propyl)hexahydropyrrolo[3,4-c]pyrrol-2(1H)-yl]-2H-indazol-2-yl}cyclohexyl]methyl}-2,3,5-trifluoro-4-hydroxybenzamide, trifluoroacetate salt] | 2.9 nM | 78% |
| Cn1c(=O)n(C2CCC(=O)NC2=O)c2ccc(CCCN3Cc4cnc(-c5ccc6cn([C@H]7CC[C@H](CNC(=O)c8cc(F)c(O)c(F)c8F)CC7)nc6c5)cc4C3)cc21 (mixture of isomers) [Example 119, N-{[(1r,4r)-4-{6-[2-(3-{1-[(3RS)-2,6-dioxopiperidin-3-yl]-3-methyl-2-oxo-2,3-dihydro-1H-benzimidazol-5-yl}propyl)-2,3-dihydro-1H-pyrrolo[3,4-c]pyridin-6-yl]-2H-indazol-2-yl}cyclohexyl]methyl}-2,3,5-trifluoro-4-hydroxybenzamide, formate salt] | 0.28 nM | 75% |
| Cn1c(=O)n(C2CCC(=O)NC2=O)c2ccc(CCCN3CCN(c4nc(-c5nc([C@]67CC[C@](CNC(=O)c8cc(F)c(O)c(F)c8F)(CC6)CC7)no5)cc(N5CCOCC5)n4)CC3)cc21 (mixture of isomers) [Example 123, N-{[4-(5-{2-[4-(3-{1-[(3RS)-2,6-dioxopiperidin-3-yl]-3-methyl-2-oxo-2,3-dihydro-1H-benzimidazol-5-yl}propyl)piperazin-1-yl]-6-(morpholin-4-yl)pyrimidin-4-yl}-1,2,4-oxadiazol-3-yl)bicyclo[2.2.2]octan-1-yl]methyl}-2,3,5-trifluoro-4-hydroxybenzamide] | 0.23 nM | 79% |
| COc1c(C(=O)NC[C@]23CC[C@](c4noc(-c5ccnc(N6CCN(CCCc7ccc8c(c7)n(C)c(=O)n8C7CCC(=O)NC7=O)CC6)n5)n4)(CC2)CC3)cc(F)c(O)c1F (mixture of isomers) [Example 124, N-{[4-(5-{2-[4-(3-{1-[(3RS)-2,6-dioxopiperidin-3-yl]-3-methyl-2-oxo-2,3-dihydro-1H-benzimidazol-5-yl}propyl)piperazin-1-yl]pyrimidin-4-yl}-1,2,4-oxadiazol-3-yl)bicyclo[2.2.2]octan-1-yl]methyl}-3,5-difluoro-4-hydroxy-2-methoxybenzamide, trifluoroacetate salt] | 0.27 nM | 72% |
| Cn1c(=O)n(C2CCC(=O)NC2=O)c2ccc(CCCN3CCN(c4nc(-c5nc([C@]67CC[C@](CNC(=O)c8cc(F)c(O)c(F)c8F)(CC6)CC7)no5)cc(-n5ccnc5)n4)CC3)cc21 (mixture of isomers) [Example 125, N-{[4-(5-{2-[4-(3-{1-[(3RS)-2,6-dioxopiperidin-3-yl]-3-methyl-2-oxo-2,3-dihydro-1H-benzimidazol-5-yl}propyl)piperazin-1-yl]-6-(1H-imidazol-1-yl)pyrimidin-4-yl}-1,2,4-oxadiazol-3-yl)bicyclo[2.2.2]octan-1-yl]methyl}-2,3,5-trifluoro-4-hydroxybenzamide, formate salt] | 0.28 nM | 85% |
| COc1nc(-c2ccc3cn([C@H]4CC[C@H](CNC(=O)c5cc(F)c(O)c(F)c5F)CC4)nc3c2)nc2c1CN(CCCc1ccc3c(c1)n(C)c(=O)n3C1CCC(=O)NC1=O)C2 (mixture of isomers) [Example 126, N-{[(1r,4r)-4-{6-[6-(3-{1-[(3RS)-2,6-dioxopiperidin-3-yl]-3-methyl-2-oxo-2,3-dihydro-1H-benzimidazol-5-yl}propyl)-4-methoxy-6,7-dihydro-5H-pyrrolo[3,4-d]pyrimidin-2-yl]-2H-indazol-2-yl}cyclohexyl]methyl}-2,3,5-trifluoro-4-hydroxybenzamide, trifluoroacetate salt] | 0.36 nM | 84% |

Continued, in another order:

| DC50 | Compound | Huh7_HIBIT-HSD17β13_DC50 GMean Asymptote Maximum |
| --- | --- | --- |
| 0.22 nM | Cn1c(=O)n(C2CCC(=O)NC2=O)c2ccc(CCN3Cc4ccc(-c5ccc6cn([C@H]7CC[C@H](CNC(=O)c8cc(F)c(O)c(F)c8F)CC7)nc6c5)cc4C3)cc21 (mixture of isomers) [Example 106, N-{[(1r,4r)-4-{6-[2-(2-{1-[(3RS)-2,6-dioxopiperidin-3-yl]-3-methyl-2-oxo-2,3-dihydro-1H-benzimidazol-5-yl}ethyl)-2,3-dihydro-1H-isoindol-5-yl]-2H-indazol-2-yl}cyclohexyl]methyl}-2,3,5-trifluoro-4-hydroxybenzamide, trifluoroacetate salt] | 80% |
| 0.2 nM | Cn1c(=O)n(C2CCC(=O)NC2=O)c2ccc(CCCN3Cc4cc(-c5ccc6cn([C@H]7CC[C@H](CNC(=O)c8cc(F)c(O)c(F)c8F)CC7)nc6c5)cnc4C3)cc21 (mixture of isomers) [Example 116, N-{[(1r,4r)-4-{6-[6-(3-{1-[(3RS)-2,6-dioxopiperidin-3-yl]-3-methyl-2-oxo-2,3-dihydro-1H-benzimidazol-5-yl}propyl)-6,7-dihydro-5H-pyrrolo[3,4-b]pyridin-3-yl]-2H-indazol-2-yl}cyclohexyl]methyl}-2,3,5-trifluoro-4-hydroxybenzamide, trifluoroacetate salt] | 88% |
| 0.15 nM | Cn1c(=O)n(C2CCC(=O)NC2=O)c2ccc(CCCN3CCN(c4cnc(-c5ccn6cc([C@]78CC[C@](CNC(=O)c9cc(F)c(O)c(F)c9F)(CC7)CC8)nc6c5)nc4)CC3)cc21 (mixture of isomers) [Example 120, N-{[4-(7-{5-[4-(3-{1-[(3RS)-2,6-dioxopiperidin-3-yl]-3-methyl-2-oxo-2,3-dihydro-1H-benzimidazol-5-yl}propyl)piperazin-1-yl]pyrimidin-2-yl}imidazo[1,2-a]pyridin-2-yl)bicyclo[2.2.2]octan-1-yl]methyl}-2,3,5-trifluoro-4-hydroxybenzamide, trifluoroacetate salt] | 82% |
| 0.2 nM | Cn1c(=O)n(C2CCC(=O)NC2=O)c2ccc(CCCN3CCN(c4nccc(-c5nc([C@]67CC[C@](CNC(=O)c8cc(F)c(O)c(F)c8F)(CC6)CC7)no5)n4)CC3)cc21 (mixture of isomers) [Example 121, formate salt] | 85% |
| 0.23 nM | Cc1sc([C@]23CC[C@](CNC(=O)c4cc(F)c(O)c(F)c4F)(CC2)CC3)nc1-c1ccnc(N2CCN(CCCc3ccc4c(c3)n(C)c(=O)n4C3CCC(=O)NC3=O)CC2)n1 (mixture of isomers) [Example 122, N-{[4-(4-{2-[4-(3-{1-[(3RS)-2,6-dioxopiperidin-3-yl]-3-methyl-2-oxo-2,3-dihydro-1H-benzimidazol-5-yl}propyl)piperazin-1-yl]pyrimidin-4-yl}-5-methyl-1,3-thiazol-2-yl)bicyclo[2.2.2]octan-1-yl]methyl}-2,3,5-trifluoro-4-hydroxybenzamide] | 73% |
